≈ marks a conversion by molar mass, not a printed value. Calls of active or inactive are those of the source. The calls are words filed in the database; no cut-off is given here.
What was measured:
Escherichia coli [1] = experiment: Antibacterial activity against wild-type Escherichia coli ATCC 25922 assessed as inhibition of bacterial growth incubated for 18 hrs in presence of 50% heat inactivated human serum; assay type: functional; conditions: read-out: MIC100
Escherichia coli [2] = experiment: Antibacterial activity against Escherichia coli ATCC 35218 infected in Swiss albino mouse septicemia model assessed as log10 reduction in bacterial burden below stasis in blood at 20 mg/kg, iv administered twice every 2 hrs and measured after 5 hrs; assay type: functional
Serratia marcescens = experiment: Antibacterial activity against intrinsically colistin resistant Serratia marcescens ATCC 13880 assessed as inhibition of bacterial growth incubated for 18 hrs; assay type: functional; conditions: read-out: MIC100
Escherichia coli [3] = experiment: Antibacterial activity against Escherichia coli ATCC 35218 infected in Swiss albino mouse septicemia model assessed as log10 reduction in bacterial burden below stasis in kidney at 20 mg/kg, iv administered twice every 2 hrs and measured after 5 hrs; assay type: functional
[4] = Drug localization in cytoplasm of Escherichia coli ATCC 25922 at 10 uM incubated for 10 mins by LC-MS/MS analysis; assay type: ADME, subcellular
Escherichia coli [5] = experiment: Antibacterial activity against Escherichia coli ATCC 25922 assessed as inhibition of bacterial growth incubated for 18 hrs in presence of 150 mM NaCl; assay type: functional, organism-based
[6] = Cytotoxicity against human HepG2 cells incubated for 40 hrs by celltiter-glo luminescent cell viability assay; assay type: toxicity, cell-based
Escherichia coli [7] = experiment: Antibacterial activity against Escherichia coli ATCC 25922 harboring tolC knock-out assessed as inhibition of bacterial growth incubated for 18 hrs; assay type: functional; conditions: read-out: MIC100
Klebsiella pneumoniae [8] = experiment: Antibacterial activity against Klebsiella pneumoniae ATCC 43816 infected in mouse urinary tract infection model assessed as reduction in bacterial burden in kidney at <10 mg/kg, iv administered every 4 hrs and measured after 26 hrs; assay type: functional, organism-based
Cytochrome P450 3A4 = Cytochrome P450 3A4 (Homo sapiens, UniProt P08684); experiment: Induction of CYP3A4 (unknown origin); assay type: ADME
Chain of Cytochrome P450 3A4 (P08684 whole entry): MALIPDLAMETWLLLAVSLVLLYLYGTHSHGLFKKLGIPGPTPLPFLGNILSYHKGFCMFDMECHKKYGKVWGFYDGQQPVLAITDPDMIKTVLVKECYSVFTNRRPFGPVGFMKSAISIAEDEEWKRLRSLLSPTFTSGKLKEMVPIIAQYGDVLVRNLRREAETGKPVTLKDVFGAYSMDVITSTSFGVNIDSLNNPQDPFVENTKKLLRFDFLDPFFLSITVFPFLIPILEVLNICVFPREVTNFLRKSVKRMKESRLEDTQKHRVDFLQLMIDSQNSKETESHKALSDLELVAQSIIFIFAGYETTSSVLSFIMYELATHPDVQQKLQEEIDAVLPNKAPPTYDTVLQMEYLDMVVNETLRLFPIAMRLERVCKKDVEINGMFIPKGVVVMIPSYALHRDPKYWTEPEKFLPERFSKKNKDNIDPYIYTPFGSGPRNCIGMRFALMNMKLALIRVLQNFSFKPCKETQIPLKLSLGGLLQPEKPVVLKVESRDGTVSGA

Enterobacter cloacae = experiment: Antibacterial activity against Enterobacter cloacae ATCC 23355 assessed as inhibition of bacterial growth incubated for 18 hrs; assay type: functional; conditions: read-out: MIC100
[9] = Half life in Swiss mouse at 10 mg/kg, iv administered as single bolus dose and measured upto 24 hrs by LC-MS/MS analysis; assay type: ADME, organism-based; conditions: in vivo
[10] = Aqueous solubility of compound at pH 7.4; assay type: physicochemical
[11] = AUClast in Swiss mouse kidney at 10 mg/kg, iv administered as single bolus dose and measured upto 24 hrs by LC-MS/MS analysis; assay type: ADME, organism-based
Escherichia coli [12] = experiment: Antibacterial activity against Escherichia coli ATCC BAA-2469 expressing NDM-1 assessed as inhibition of bacterial growth incubated for 18 hrs; assay type: functional; conditions: read-out: MIC100
[13] = Clearance in human microsomes; assay type: ADME, Microsome
Escherichia coli [14] = experiment: Antibacterial activity against Escherichia coli ATCC 25922 harboring hldE knock-out assessed as inhibition of bacterial growth incubated for 18 hrs; assay type: functional; conditions: read-out: MIC100
Klebsiella pneumoniae [15] = experiment: Antibacterial activity against Klebsiella pneumoniae ATCC 13883 assessed as inhibition of bacterial growth incubated for 18 hrs in presence of 5 mM KCl; assay type: functional, organism-based
[16] = Clearance in rat microsomes; assay type: ADME, Microsome
[17] = Binding affinity to gram negative bacterial lipid II assessed as dissociation constant by ITC analysis; parameters: species or system Bacteria
Klebsiella pneumoniae [18] = experiment: Antibacterial activity against wild-type Klebsiella pneumoniae ATCC 13883 assessed as inhibition of bacterial growth incubated for 18 hrs in presence of 50% heat inactivated human serum; assay type: functional; conditions: read-out: MIC100
Escherichia coli [19] = experiment: Antibacterial activity against Escherichia coli ATCC 25922 infected in cyclophosphamide immunosuppressed mouse thigh infection model at 30 to 90 mg/kg, iv administered every 2 hrs starting from 1 hr post infection and measured 25 hrs post infection; assay type: functional, organism-based; conditions: dose 30-90 mg/kg, time 24.0 hrs
Morganella morganii = experiment: Antibacterial activity against Morganella morganii ATCC 25830 assessed as inhibition of bacterial growth incubated for 18 hrs; assay type: functional; conditions: read-out: MIC100
Klebsiella pneumoniae [20] = experiment: Antibacterial activity against Klebsiella pneumoniae ATCC 43816 infected in cyclophosphamide immunosuppressed Swiss albino mouse respiratory infection model at 30 to 90 mg/kg, iv administered every 2 hrs starting from 1 hr post infection and measured 5 hrs post infection; assay type: functional, organism-based; conditions: dose 30-90 mg/kg, time 4.0 hrs
Salmonella typhimurium = experiment: Antibacterial activity against Salmonella typhimurium ATCC 13311 assessed as inhibition of bacterial growth incubated for 18 hrs; assay type: functional, Salmonella enterica subsp. enterica serovar Typhimurium; conditions: Salmonella enterica, read-out: MIC100
[21] = Genotoxicity in human TK6 cells measured after 3 to 24 hrs; assay type: toxicity, cell-based; conditions: time 3-24 hrs
Escherichia coli [22] = experiment: Antibacterial activity against Escherichia coli Swiss 7 harboring mcr-1 gene assessed as inhibition of bacterial growth incubated for 18 hrs; assay type: functional; conditions: read-out: MIC100
[23] = Cmax in Swiss mouse liver at 10 mg/kg, iv administered as single bolus dose and measured upto 24 hrs by LC-MS/MS analysis; assay type: ADME, organism-based
[24] = Hepatotoxicity in cryopreserved rat primary hepatocytes; assay type: toxicity, cell-based, Hepatocyte
Klebsiella pneumoniae [25] = experiment: Antibacterial activity against Klebsiella pneumoniae panel (100 strains) assessed as inhibition of bacterial growth; assay type: functional
[26] = AUClast in Swiss mouse plasma at 10 mg/kg, iv administered as single bolus dose and measured upto 24 hrs by LC-MS/MS analysis; assay type: ADME, organism-based
Klebsiella pneumoniae [27] = experiment: Antibacterial activity against Klebsiella pneumoniae ATCC 43816 infected in mouse urinary tract infection model at <10 mg/kg, iv administered every 4 hrs and measured after 26 hrs; assay type: functional, organism-based
[28] = Toxicity in naive mouse assessed as animal death at >15 mg/kg, iv administered as single dose every 4 hrs for 24 hrs; assay type: organism-based; conditions: in vivo
[29] = Chemical stability of compound at pH 7.4; assay type: physicochemical; conditions: buffer
Cytochrome P450 1A2 = biological target: T1, Cytochrome P450 1A2 (Homo sapiens, UniProt P05177); experiment: Induction of CYP1A2 (unknown origin); assay type: ADME
T1 sequence (P05177 whole entry): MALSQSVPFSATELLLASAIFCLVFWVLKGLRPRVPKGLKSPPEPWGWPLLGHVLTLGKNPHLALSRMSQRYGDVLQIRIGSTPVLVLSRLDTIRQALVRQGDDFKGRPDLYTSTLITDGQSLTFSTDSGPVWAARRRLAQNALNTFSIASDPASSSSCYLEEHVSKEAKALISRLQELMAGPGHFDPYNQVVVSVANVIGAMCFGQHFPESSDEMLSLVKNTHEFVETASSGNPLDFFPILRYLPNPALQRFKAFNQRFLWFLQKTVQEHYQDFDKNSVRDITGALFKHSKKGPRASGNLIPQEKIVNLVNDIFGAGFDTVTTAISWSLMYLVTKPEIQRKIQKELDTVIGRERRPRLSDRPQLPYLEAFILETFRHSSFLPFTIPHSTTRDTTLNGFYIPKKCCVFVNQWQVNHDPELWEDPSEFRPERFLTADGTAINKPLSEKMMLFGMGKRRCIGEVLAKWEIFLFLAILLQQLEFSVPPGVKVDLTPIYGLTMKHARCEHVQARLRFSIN

[30] = Cmax in Swiss mouse lung at 10 mg/kg, iv administered as single bolus dose and measured upto 24 hrs by LC-MS/MS analysis; assay type: ADME, organism-based
Escherichia coli [31] = experiment: Antibacterial activity against Escherichia coli ATCC 25922 assessed as inhibition of bacterial growth incubated for 18 hrs in presence of 2 mM MgCl2; assay type: functional, organism-based

With `CC[C@H](C)[C@@H](NC(=O)[C@@H](NC(=O)[C@H](CCC(=O)O)NC(=O)[C@H](Cc1ccccc1)NC(=O)[C@@H](CCN)NC(=O)[C@H](CCN)NC(=O)[C@H](CO)NC(=O)[C@@H](Cc1c[nH]c2ccccc12)NC(=O)[C@@H](CO)NC(=O)CNC(=O)[C@@H](CCN)NC(=O)[C@H](NC(=O)[C@H](C)N)C(C)C)C(C)C)C(=O)N[C@@H](C)C(=O)O` the MIC (Escherichia coli [1]) was 2 µg/mL, the “log(activity)” value (Escherichia coli [2]) was ~2 and the MIC (Serratia marcescens) was 8 µg/mL (≈ 5.46 µM). The “log(activity)” value (Escherichia coli [3]) was ~2, the Drug uptake [4] was “Active” and the Activity (Escherichia coli [5]) was “Active”. For the same molecule, the IC50 at 40 h [6] was > 170 µg/mL, the MIC (Escherichia coli [7]) was 1 µg/mL (≈ 0.682 µM) and the Activity (Klebsiella pneumoniae [8]) was “Active”. For the same molecule, the Activity (Cytochrome P450 3A4) was “Not Active”, the MIC (Enterobacter cloacae) was 2 µg/mL (≈ 1.36 µM) and the half-life [9] was 22.8 min. The solubility [10] was > 1000 µg/mL, the AUC(0-t) at 24 h [11] was 659 µg·h/mL and the MIC (Escherichia coli [12]) was 8 µg/mL (≈ 5.46 µM). The microsomal CLint [13] was 23 µL/min/mg, the MIC (Escherichia coli [14]) was 4 µg/mL (≈ 2.73 µM) and the Activity (Klebsiella pneumoniae [15]) was “Active”. It also gave a microsomal CLint [16] of 19 µL/min/mg, a Kd [17] of 2.6 µM and an MIC (Klebsiella pneumoniae [18]) of 1 µg/mL. The Activity (Escherichia coli [19]) was “Active”, the MIC (Morganella morganii) was > 32 µg/mL and the Activity (Klebsiella pneumoniae [20]) was “Active”. The MIC (Salmonella typhimurium) was 16 µg/mL (≈ 10.9 µM), the Activity [21] was “Non-Toxic” and the MIC (Escherichia coli [22]) was 16 µg/mL (≈ 10.9 µM). The Cmax [23] was 5650 ng/mL, the Activity [24] was “Non-Toxic” and the MIC50 (Klebsiella pneumoniae [25]) was 8 µg/mL (≈ 5.46 µM). The MIC90 (Klebsiella pneumoniae [25]) was 32 µg/mL (≈ 21.8 µM), the AUC(0-t) at 24 h [26] was 82.5 µg·h/mL and the Activity (Klebsiella pneumoniae [27]) was “Active”. For the same molecule, the Activity [28] was “Toxic”, the Stability [29] was “Stable” and the Activity (Cytochrome P450 1A2) was “Not Active”. For the same molecule, the Cmax [30] was 17000 ng/mL and the Activity (Escherichia coli [31]) was “Active”.
